# Measurements: PubChem BioAssay AID282 (DTP/NCI, 2004)
# Several values for one entry are separate records, joined by “and”; a condition that tells them apart may be missing. Equal entries are not always repeated. Inconclusive results and toxic doses are left out.
# System: BDF1 mice, L1210 terephthalanilide-resistant leukemia ip, survival T/C
# Experiment: NCI In Vivo Anticancer Drug Screen. Data for tumor model L1210 Leukemia resistant to A Terephthalanilide; NSC 38280 (intraperitoneal) in B6D2F1 (BDF1) mice
# Details: endpoint: mean survival time, higher = longer survival
# Experimental: The antitumor activity of compounds was measured in mice bearing transplantable tumors. Survival or tumor size were measured and the results are expressed as the measurement made in the treated group (T) divided by the measurement made in the vehicle treated control group (C). The tumor model used in this assay is L1210 Leukemia resistant to A Terephthalanilide; NSC 38280 (intraperitoneal) in B6D2F1 (BDF1) mice
# [1] = dose: 125.0 micrograms/kg/injection, schedule: Q01DX010 (ip), vehicle: saline
# [2] = dose: 2.0 mg/kg/injection, schedule: Q01DX010 (ip), vehicle: saline
# [3] = dose: 2.5 mg/kg/injection, schedule: Q01DX010 (ip), vehicle: saline
# [4] = dose: 5.0 mg/kg/injection, schedule: Q01DX010 (ip), vehicle: saline
# [5] = dose: 5.0 mg/kg/injection, schedule: Q01DX Z (ip), vehicle: carboxymethylcellulose (CMC)
# [6] = dose: 10.0 mg/kg/injection, schedule: Q01DX Z (ip), vehicle: carboxymethylcellulose (CMC)
# [7] = dose: 10.0 mg/kg/injection, schedule: Q01DX010 (ip), vehicle: saline
# [8] = dose: 20.0 mg/kg/injection, schedule: Q01DX010 (ip), vehicle: saline
# [9] = dose: 20.0 mg/kg/injection, schedule: Q01DX Z (ip), vehicle: carboxymethylcellulose (CMC)
# [10] = dose: 25.0 mg/kg/injection, schedule: Q01DX010 (ip), vehicle: saline
# [11] = dose: 50.0 mg/kg/injection, schedule: Q01DX010 (ip), vehicle: saline
# [12] = dose: 100.0 mg/kg/injection, schedule: Q01DX010 (ip), vehicle: saline
# [13] = dose: 200.0 mg/kg/injection, schedule: Q01DX010 (ip), vehicle: saline
compound,measurement,setting,value
O[C@H](CN1CC1)[C@@H](O)CN1CC1,T/C,"dose: 0.18 mg/kg/injection, schedule: Q01DX Z (ip), vehicle: saline",317 % of control
same,T/C,"dose: 0.25 mg/kg/injection, schedule: Q01DX Z (ip), vehicle: saline",300 % of control
same,T/C,"dose: 0.37 mg/kg/injection, schedule: Q01DX Z (ip), vehicle: saline",223 % of control
same,T/C,"dose: 5.0 mg/kg/injection, schedule: Q01DX Z (ip), vehicle: saline",188 % of control
same,T/C,"dose: 2.0 micrograms/kg/injection, schedule: Q01DX Z (ip), vehicle: saline",109 % of control
same,T/C,"dose: 4.0 micrograms/kg/injection, schedule: Q01DX Z (ip), vehicle: saline",101 % of control
same,T/C,"dose: 6.0 micrograms/kg/injection, schedule: Q01DX Z (ip), vehicle: saline",98 % of control
same,T/C,"dose: 9.0 micrograms/kg/injection, schedule: Q01DX Z (ip), vehicle: saline",110 % of control
same,T/C,"dose: 18.0 micrograms/kg/injection, schedule: Q01DX Z (ip), vehicle: saline",115 % of control
same,T/C,"dose: 37.0 micrograms/kg/injection, schedule: Q01DX Z (ip), vehicle: saline",103 % of control
same,T/C,"dose: 50.0 micrograms/kg/injection, schedule: Q01DX Z (ip), vehicle: saline",156 % of control
same,T/C,"dose: 62.5 micrograms/kg/injection, schedule: Q01DX010 (ip), vehicle: saline",120 % of control
same,T/C,"dose: 75.0 micrograms/kg/injection, schedule: Q01DX Z (ip), vehicle: saline",154 % of control and 162 % of control
same,T/C,[1],111 % of control
same,T/C,"dose: 180.0 micrograms/kg/injection, schedule: Q01DX Z (ip), vehicle: saline",284 % of control
same,T/C,"dose: 210.0 micrograms/kg/injection, schedule: Q01DX Z (ip), vehicle: saline",235 % of control
same,T/C,"dose: 500.0 micrograms/kg/injection, schedule: Q01DX010 (ip), vehicle: saline",91 % of control
O=C(Nc1ccc(NC2=NCCN2)cc1)c1ccc(C(=O)Nc2ccc(NC3=NCCN3)cc2)cc1,T/C,[2],112 % of control and 113 % of control
same,T/C,"dose: 4.0 mg/kg/injection, schedule: Q01DX010 (ip), vehicle: saline",115 % of control
same,T/C,"dose: 16.0 mg/kg/injection, schedule: Q01DX010 (ip), vehicle: saline",122 % of control and 115 % of control
NC(Cc1ccc(N(CCCl)CCCl)cc1)C(=O)O (stereo not drawn),T/C,"dose: 0.31 mg/kg/injection, schedule: Q01DX Z (ip), vehicle: carboxymethylcellulose (CMC)",113 % of control
same,T/C,"dose: 0.62 mg/kg/injection, schedule: Q01DX Z (ip), vehicle: carboxymethylcellulose (CMC)",114 % of control
same,T/C,"dose: 2.0 mg/kg/injection, schedule: Q01DX Z (ip), vehicle: carboxymethylcellulose (CMC)",174 % of control
same,T/C,[3],183 % of control
same,T/C,"dose: 2.5 mg/kg/injection, schedule: Q01DX Z (ip), vehicle: carboxymethylcellulose (CMC)",162 % of control
same,T/C,"dose: 4.0 mg/kg/injection, schedule: Q01DX Z (ip), vehicle: carboxymethylcellulose (CMC)",184 % of control
same,T/C,[4],166 % of control
same,T/C,[5],212 % of control
same,T/C,"dose: 7.5 mg/kg/injection, schedule: Q01DX Z (ip), vehicle: carboxymethylcellulose (CMC)",172 % of control
same,T/C,[6],181 % of control
same,T/C,"dose: 15.0 mg/kg/injection, schedule: Q01DX Z (ip), vehicle: carboxymethylcellulose (CMC)",120 % of control
S=P(N1CCOCC1)(N1CC1)N1CC1,T/C,"dose: 1.87 mg/kg/injection, schedule: Q01DX Z (ip), vehicle: carboxymethylcellulose (CMC)",98 % of control and 111 % of control
same,T/C,[3],92 % of control and 101 % of control
same,T/C,"dose: 3.75 mg/kg/injection, schedule: Q01DX Z (ip), vehicle: carboxymethylcellulose (CMC)",107 % of control and 115 % of control
same,T/C,[4],97 % of control and 102 % of control
same,T/C,[5],98 % of control and 114 % of control
same,T/C,[7],99 % of control and 100 % of control
same,T/C,[8],101 % of control
same,T/C,[9],159 % of control
same,T/C,"dose: 40.0 mg/kg/injection, schedule: Q01DX Z (ip), vehicle: carboxymethylcellulose (CMC)",104 % of control
CC[n+]1ccccc1-c1ccc(NC(=O)c2ccc(C(=O)Nc3ccc(-c4ccccn4)cc3)cc2)cc1,T/C,[3],115 % of control
same,T/C,[7],119 % of control
same,T/C,[8],92 % of control
CC(=O)Nc1ccc2nc3ccc(NC(C)=O)cc3[n+](-c3ccccc3)c2c1,T/C,[6],108 % of control
same,T/C,"dose: 12.5 mg/kg/injection, schedule: Q01DX010 (ip), vehicle: saline",107 % of control
same,T/C,[9],117 % of control
same,T/C,[10],109 % of control and 110 % of control
same,T/C,[11],121 % of control and 104 % of control
same,T/C,[12],106 % of control and 112 % of control
same,T/C,"dose: 150.0 mg/kg/injection, schedule: Q01DX Z (ip), vehicle: carboxymethylcellulose (CMC)",121 % of control
same,T/C,"dose: 300.0 mg/kg/injection, schedule: Q01DX Z (ip), vehicle: carboxymethylcellulose (CMC)",120 % of control
same,T/C,"dose: 400.0 mg/kg/injection, schedule: Q01DX Z (ip), vehicle: carboxymethylcellulose (CMC)",91 % of control
CS(=O)(=O)OCCN(CCOS(C)(=O)=O)c1ccc(N=O)cc1,T/C,"dose: 0.5 mg/kg/injection, schedule: Q01DX010 (ip), vehicle: saline",122 % of control
same,T/C,"dose: 1.0 mg/kg/injection, schedule: Q01DX010 (ip), vehicle: saline",115 % of control
same,T/C,[2],98 % of control
same,T/C,[1],118 % of control
same,T/C,"dose: 1000.0 micrograms/kg/injection, schedule: Q01DX010 (ip), vehicle: saline",116 % of control
CSc1ncnc2nc[nH]c12,T/C,[10],98 % of control and 100 % of control
same,T/C,"dose: 31.25 mg/kg/injection, schedule: Q01DX Z (ip), vehicle: carboxymethylcellulose (CMC)",102 % of control
same,T/C,[11],100 % of control and 102 % of control
same,T/C,"dose: 62.5 mg/kg/injection, schedule: Q01DX Z (ip), vehicle: carboxymethylcellulose (CMC)",105 % of control
same,T/C,[12],102 % of control and 107 % of control
same,T/C,"dose: 125.0 mg/kg/injection, schedule: Q01DX Z (ip), vehicle: carboxymethylcellulose (CMC)",113 % of control
same,T/C,[13],102 % of control and 105 % of control
COc1cc(-c2ccc(Nc3ccccc3C(=O)O)c(OC)c2)ccc1Nc1ccccc1C(=O)O,T/C,"dose: 67.0 mg/kg/injection, schedule: Q01DX010 (ip), vehicle: saline",150 % of control and 159 % of control
O=C1CCC(N2C(=O)c3ccccc3C2=O)C(=O)N1 (stereo not drawn),T/C,"dose: 31.3 mg/kg/injection, schedule: Q01DX010 (ip), vehicle: saline",94 % of control
same,T/C,"dose: 62.5 mg/kg/injection, schedule: Q01DX010 (ip), vehicle: saline",96 % of control
same,T/C,"dose: 125.0 mg/kg/injection, schedule: Q01DX010 (ip), vehicle: saline",94 % of control
same,T/C,"dose: 250.0 mg/kg/injection, schedule: Q01DX010 (ip), vehicle: saline",100 % of control
O=c1[nH]c(=O)n(C2CC(O)C(CO)O2)cc1F (stereo not drawn),T/C,[7],103 % of control
same,T/C,"dose: 12.5 mg/kg/injection, schedule: Q01DX Z (ip), vehicle: saline",118 % of control
same,T/C,[8],110 % of control and 119 % of control
same,T/C,"dose: 25.0 mg/kg/injection, schedule: Q01DX Z (ip), vehicle: saline",116 % of control
same,T/C,"dose: 37.5 mg/kg/injection, schedule: Q01DX Z (ip), vehicle: saline",122 % of control
same,T/C,"dose: 40.0 mg/kg/injection, schedule: Q01DX010 (ip), vehicle: saline",95 % of control
same,T/C,"dose: 50.0 mg/kg/injection, schedule: Q01DX Z (ip), vehicle: saline",178 % of control
same,T/C,"dose: 80.0 mg/kg/injection, schedule: Q01DX010 (ip), vehicle: saline",151 % of control
same,T/C,"dose: 100.0 mg/kg/injection, schedule: Q01DX Z (ip), vehicle: saline",183 % of control
same,T/C,"dose: 500.0 mg/kg/injection, schedule: Q01DX Z (ip), vehicle: saline",119 % of control
CS(=O)(=O)OCC(O)C(O)COS(C)(=O)=O (stereo not drawn),T/C,"dose: 25.0 mg/kg/injection, schedule: Q01DX Z (ip), vehicle: carboxymethylcellulose (CMC)",107 % of control
same,T/C,"dose: 50.0 mg/kg/injection, schedule: Q01DX Z (ip), vehicle: carboxymethylcellulose (CMC)",103 % of control
same,T/C,"dose: 100.0 mg/kg/injection, schedule: Q01DX Z (ip), vehicle: carboxymethylcellulose (CMC)",103 % of control
same,T/C,[13],101 % of control
same,T/C,"dose: 200.0 mg/kg/injection, schedule: Q01DX Z (ip), vehicle: carboxymethylcellulose (CMC)",101 % of control
same,T/C,"dose: 250.0 mg/kg/injection, schedule: Q01DX Z (ip), vehicle: carboxymethylcellulose (CMC)",100 % of control
same,T/C,"dose: 375.0 mg/kg/injection, schedule: Q01DX Z (ip), vehicle: carboxymethylcellulose (CMC)",111 % of control
same,T/C,"dose: 400.0 mg/kg/injection, schedule: Q01DX010 (ip), vehicle: saline",97 % of control
same,T/C,"dose: 800.0 mg/kg/injection, schedule: Q01DX010 (ip), vehicle: saline",91 % of control
